Our source for the IC50 values is patent US7589212B2, “Human protein tyrosine phosphatase inhibitors and methods of use” (Procter & Gamble Company, priority 2006, dated 2009).

SMILES strings stand for the structures. pIC50: −log10 of the molar value.

The target in experiment [1] is T1, PTP1B (Homo sapiens, UniProt P18031).
T1 sequence (P18031 1-435): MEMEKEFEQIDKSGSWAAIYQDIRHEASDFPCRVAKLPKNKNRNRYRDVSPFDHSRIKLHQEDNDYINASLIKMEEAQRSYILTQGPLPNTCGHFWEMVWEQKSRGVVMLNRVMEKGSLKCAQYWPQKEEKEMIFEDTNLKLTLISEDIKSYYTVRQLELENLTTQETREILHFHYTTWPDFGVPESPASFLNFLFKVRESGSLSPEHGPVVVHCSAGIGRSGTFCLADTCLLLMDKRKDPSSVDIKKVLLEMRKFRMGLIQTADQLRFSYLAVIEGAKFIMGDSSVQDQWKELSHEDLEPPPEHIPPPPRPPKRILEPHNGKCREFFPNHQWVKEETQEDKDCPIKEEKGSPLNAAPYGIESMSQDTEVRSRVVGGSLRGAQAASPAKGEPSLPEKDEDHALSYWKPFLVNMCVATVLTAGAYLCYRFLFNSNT
In words: PTP1B inhibition (IC50). In kind it is biochemical.

Experiment [2] has as its target HPTPβ (Homo sapiens, UniProt P23467). Nature of the experiment: HPTPβ inhibition (IC50). In kind it is biochemical.

HPTPβ, sequence (P23467 23-1997): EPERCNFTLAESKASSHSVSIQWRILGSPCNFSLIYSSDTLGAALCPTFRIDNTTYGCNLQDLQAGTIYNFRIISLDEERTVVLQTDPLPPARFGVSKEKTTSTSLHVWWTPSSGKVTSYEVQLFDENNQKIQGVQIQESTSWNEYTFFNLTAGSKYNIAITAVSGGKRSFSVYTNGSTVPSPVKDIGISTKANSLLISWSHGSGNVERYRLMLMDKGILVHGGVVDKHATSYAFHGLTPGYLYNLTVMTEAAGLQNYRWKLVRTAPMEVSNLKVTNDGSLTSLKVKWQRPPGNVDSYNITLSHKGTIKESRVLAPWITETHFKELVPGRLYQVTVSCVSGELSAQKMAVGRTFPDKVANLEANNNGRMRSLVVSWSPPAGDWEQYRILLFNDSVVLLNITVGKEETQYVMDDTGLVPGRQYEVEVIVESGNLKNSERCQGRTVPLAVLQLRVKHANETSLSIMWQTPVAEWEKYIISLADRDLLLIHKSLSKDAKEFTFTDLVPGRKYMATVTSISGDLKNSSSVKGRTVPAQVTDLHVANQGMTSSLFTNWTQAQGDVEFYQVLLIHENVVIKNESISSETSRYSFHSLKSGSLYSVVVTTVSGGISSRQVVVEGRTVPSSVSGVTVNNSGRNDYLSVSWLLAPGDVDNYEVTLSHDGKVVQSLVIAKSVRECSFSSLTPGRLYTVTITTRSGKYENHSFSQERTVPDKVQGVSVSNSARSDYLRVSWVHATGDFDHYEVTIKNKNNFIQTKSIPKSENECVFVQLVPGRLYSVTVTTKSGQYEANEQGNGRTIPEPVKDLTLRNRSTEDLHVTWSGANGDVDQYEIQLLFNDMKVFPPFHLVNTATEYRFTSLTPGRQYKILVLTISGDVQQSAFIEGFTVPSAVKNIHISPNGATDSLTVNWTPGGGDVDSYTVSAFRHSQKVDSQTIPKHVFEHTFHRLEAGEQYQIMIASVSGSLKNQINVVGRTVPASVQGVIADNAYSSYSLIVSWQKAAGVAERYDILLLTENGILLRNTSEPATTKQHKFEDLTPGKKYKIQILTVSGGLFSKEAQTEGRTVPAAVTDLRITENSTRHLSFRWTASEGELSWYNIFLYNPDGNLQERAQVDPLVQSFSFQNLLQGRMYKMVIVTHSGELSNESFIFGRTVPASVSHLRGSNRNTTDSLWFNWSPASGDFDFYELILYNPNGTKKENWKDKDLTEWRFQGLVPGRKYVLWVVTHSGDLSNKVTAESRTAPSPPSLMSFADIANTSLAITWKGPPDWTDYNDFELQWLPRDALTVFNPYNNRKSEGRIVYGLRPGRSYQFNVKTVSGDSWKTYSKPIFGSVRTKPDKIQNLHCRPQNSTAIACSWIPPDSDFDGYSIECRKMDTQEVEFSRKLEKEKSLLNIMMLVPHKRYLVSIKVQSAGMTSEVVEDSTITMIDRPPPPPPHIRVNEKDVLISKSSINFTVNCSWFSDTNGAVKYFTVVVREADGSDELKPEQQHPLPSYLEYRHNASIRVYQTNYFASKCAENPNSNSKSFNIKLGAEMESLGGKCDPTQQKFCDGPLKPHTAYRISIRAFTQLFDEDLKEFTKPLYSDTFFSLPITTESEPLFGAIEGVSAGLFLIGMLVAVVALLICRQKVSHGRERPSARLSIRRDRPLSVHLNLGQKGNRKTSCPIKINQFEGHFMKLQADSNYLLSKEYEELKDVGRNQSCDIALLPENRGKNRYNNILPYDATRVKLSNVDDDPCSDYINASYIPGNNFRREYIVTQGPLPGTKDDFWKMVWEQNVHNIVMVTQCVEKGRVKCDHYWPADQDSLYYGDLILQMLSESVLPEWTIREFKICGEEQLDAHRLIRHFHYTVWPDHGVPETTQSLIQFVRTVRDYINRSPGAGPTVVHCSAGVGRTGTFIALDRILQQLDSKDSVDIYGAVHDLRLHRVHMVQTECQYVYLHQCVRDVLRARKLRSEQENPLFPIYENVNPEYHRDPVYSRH

Usually pIC50 stands for −log10 of the IC50, conventionally taken in molar units. High values mean a small IC50, low ones a large IC50. Turning to `Cc1nc(Cc2nnc(N[C@@H](Cc3ccc(NS(=O)(=O)O)cc3)c3csc(-c4cccs4)n3)s2)cs1` [4-((S)-2-(5-((2-Methylthiazol-4-yl)methyl)-1,3,4-thiadiazol-2-ylamino)-2-(2-(thiophen-2-yl)thiazol-4-yl)ethyl)phenylsulfamic acid], the pIC50 in experiment [1] was 6.24; in experiment [2], 11.05.
Turning to `COC(=O)Cc1nnc(N[C@@H](Cc2ccc(NS(=O)(=O)O)cc2)c2csc(-c3cccs3)n2)s1` [4-((S)-2-(5-((Methoxycarbonyl)methyl)-1,3,4-thiadiazol-2-ylamino)-2-(2-(thiophen-2-yl)thiazol-4-yl)ethyl)phenylsulfamic acid], the negative-log IC50 (pIC50) is 5.81 in experiment [1] and 8.70 in experiment [2].
Taken in the same sequence, the figures for `O=S(=O)(O)Nc1ccc(C[C@H](Nc2nnc(Cc3ccccc3)s2)c2csc(-c3cccs3)n2)cc1` [4-((S)-2-(5-Benzyl-1,3,4-thiadiazol-2-ylamino)-2-(2-(thiophen-2-yl)thiazol-4-yl)ethyl)phenylsulfamic acid] were 5.41 and 9.22.
The matching figures for `CCCc1nnc(N[C@@H](Cc2ccc(NS(=O)(=O)O)cc2)c2csc(-c3cccs3)n2)s1` [4-((S)-2-(5-Propyl-1,3,4-thiadiazol-2-ylamino)-2-(2-(thiophen-2-yl)thiazol-4-yl)ethyl)phenylsulfamic acid]: 5.33 and 9.70.
Turning to `O=S(=O)(O)Nc1ccc(C[C@H](Nc2nnc(-c3ccccc3)s2)c2csc(-c3ccccc3)n2)cc1` [(S)-4-(2-(5-Phenyl-1,3,4-thiadiazol-2-ylamino)-2-(2-phenylthiazol-4-yl)ethyl)-phenylsulfamic acid], the values for the pIC50 in experiment [1] and in experiment [2] were 5.43 and 7.34, respectively.
The matching figures for `Cc1nnc(N[C@@H](Cc2ccc(NS(=O)(=O)O)cc2)c2csc(-c3ccccc3)n2)s1` [(S)-4-(2-(5-methyl-1,3,4-thiadiazol-2-ylamino)-2-(2-phenylthiazol-4-yl)ethyl)phenylsulfamic acid]: 5.85 and 8.52.
